Reference: patent publication US20260262643A1, “HERBICIDAL BENZOXAZINES” (FMC CORPORATION, priority 2022, published 2026)

What was measured:
[1] = tested on: blackgrass; assay: Test C preemergence; format: in vivo, Alopecurus myosuroides; settings: for Plant response rating, Blackgrass: Preemergence; for Blackgrass plant response rating: preemergence
In short: (§1)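 Pre: seeds in loam/sand, directed soil spray. Post: 1–2 leaf plants, 2–10 cm. Cmpd in non-phytotoxic solvent + surfactant. Greenhouse 10 d; visual rating vs untreated, 0 = none, 100 = complete control.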

[2] = tested on: green foxtail; assay: Test C preemergence; format: in vivo, Setaria viridis; settings: for Foxtail, Green plant response rating: preemergence, 0 to 100 scale (0 no effect, 100 complete control)
In short: as §1

[3] = tested on: oat, wild; assay: Test C preemergence; format: in vivo, Avena fatua; settings: for Oat, Wild plant response rating: preemergence, 0 to 100 scale (0 no effect, 100 complete control)
In short: as §1

[4] = tested on: galium; assay: Test C postemergence; format: in vivo, Galium aparine; settings: 10 days
In short: as §1

[5] = tested on: sedge, umbrella; assay: Test D flooded paddy test; format: in vivo, Cyperus difformis; settings: 250 g ai/ha, applied to paddy water, visual rating after 13 to 14 days, scale 0 to 100 (0 no effect, 100 complete control)
In short: (§2)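 Rating scale 0–100 (0 no effect, 100 complete control), visual, versus controls. Readout at 13–14 days after in-water application to 2-leaf plants in pots flooded 3 cm deep.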

[6] = tested on: blackgrass; assay: Test C postemergence; format: in vivo, Alopecurus myosuroides; settings: 10 days
In short: as §1

[7] = tested on: barnyardgrass; assay: Test C preemergence; format: in vivo, Echinochloa crusgalli; settings: for Plant response rating, Barnyardgrass: Preemergence; for Barnyardgrass plant response rating: preemergence
In short: as §1

[8] = tested on: rice; assay: Test D flooded paddy test; format: in vivo, Oryza sativa; settings: 250 g ai/ha, applied to paddy water, visual rating after 13 to 14 days, scale 0 to 100 (0 no effect, 100 complete control)
In short: as §2

[9] = tested on: ducksalad; assay: Test D flooded paddy test; format: in vivo, Heteranthera limosa; settings: 250 g ai/ha, applied to paddy water, visual rating after 13 to 14 days, scale 0 to 100 (0 no effect, 100 complete control)
In short: as §2

[10] = tested on: oat, wild; assay: Test C postemergence; format: in vivo, Avena fatua; settings: 10 days
In short: as §1

[11] = tested on: ragweed; assay: Test C postemergence; format: in vivo, Ambrosia artemisiifolia; settings: 10 days
In short: as §1

[12] = tested on: green foxtail; assay: Test C postemergence; format: in vivo, Setaria viridis; settings: 10 days
In short: as §1

[13] = tested on: ragweed; assay: Test C preemergence; format: in vivo, Ambrosia artemisiifolia; settings: for Ragweed plant response rating: preemergence, 0 to 100 scale (0 no effect, 100 complete control)
In short: as §1

[14] = tested on: corn; assay: Test C preemergence; format: in vivo, Zea mays; settings: for Corn plant response rating: preemergence, 0 to 100 scale (0 no effect, 100 complete control)
In short: as §1

[15] = tested on: kochia; assay: Test C preemergence; format: in vivo, Bassia scoparia; settings: for Kochia plant response rating: preemergence, 0 to 100 scale (0 no effect, 100 complete control)
In short: as §1

[16] = tested on: kochia; assay: Test C postemergence; format: in vivo, Bassia scoparia; settings: 10 days
In short: as §1

[17] = tested on: soybean; assay: Test C postemergence; format: in vivo, Glycine max; settings: 10 days
In short: as §1

[18] = tested on: corn; assay: Test C postemergence; format: in vivo, Zea mays; settings: 10 days
In short: as §1

[19] = tested on: wheat; assay: Test C preemergence; format: in vivo, Triticum aestivum; settings: for Wheat plant response rating: preemergence, 0 to 100 scale (0 no effect, 100 complete control)
In short: as §1

[20] = tested on: horseweed; assay: Test C postemergence; format: in vivo, Erigeron canadensis; settings: 10 days
In short: as §1

[21] = tested on: wheat; assay: Test C postemergence; format: in vivo, Triticum aestivum; settings: 10 days
In short: as §1

[22] = tested on: barnyardgrass; assay: Test D flooded paddy test; format: in vivo, Echinochloa crus-galli; settings: 250 g ai/ha, applied to paddy water, visual rating after 13 to 14 days, scale 0 to 100 (0 no effect, 100 complete control)
In short: as §2

[23] = tested on: pigweed, palmer; assay: Test C postemergence; format: in vivo, Amaranthus palmeri; settings: 10 days
In short: as §1

[24] = tested on: pigweed, palmer; assay: Test C preemergence; format: in vivo, Amaranthus palmeri; settings: for Pigweed, Palmer plant response rating: preemergence, 0 to 100 scale (0 no effect, 100 complete control)
In short: as §1

[25] = tested on: soybean; assay: Test C preemergence; format: in vivo, Glycine max; settings: for Soybean plant response rating: preemergence, 0 to 100 scale (0 no effect, 100 complete control)
In short: as §1

[26] = tested on: ryegrass, Italian; assay: Test C postemergence; format: in vivo, Lolium multiflorum; settings: 10 days
In short: as §1

[27] = tested on: barnyardgrass; assay: Test C postemergence; format: in vivo, Echinochloa crusgalli; settings: 10 days
In short: as §1

[28] = tested on: ryegrass, Italian; assay: Test C preemergence; format: in vivo, Lolium multiflorum; settings: for Ryegrass, Italian plant response rating: preemergence, 0 to 100 scale (0 no effect, 100 complete control)
In short: as §1

[29] = 500 g ai/ha, visual rating after 10 days, 0 to 100 scale (0 no effect, 100 complete control)
[30] = Test C, 125 g ai/ha, 0 to 100 scale (0 no effect, 100 complete control)
[31] = 125 g ai/ha, postemergence, 0 to 100 scale, 0 no effect, 100 complete control
[32] = Postemergence, 500 g ai/ha, visual 0 to 100 scale (0 no effect, 100 complete control)
[33] = 500 g ai/ha, 0 to 100 scale (0 no effect, 100 complete control)
[34] = 125 g ai/ha, 0 to 100 scale, 0 no effect, 100 complete control
[35] = Preemergence, 125 g ai/ha, 0 to 100 scale, 0 no effect, 100 complete control
[36] = 500 g ai/ha, postemergence, 0 to 100 scale (0 no effect, 100 complete control)
[37] = Postemergence, 125 g ai/ha, 0 to 100 scale (0 no effect, 100 complete control)

COC[C@H]1CN(C(=O)c2cc(-n3cnc(C4CC4)n3)ccc2C)c2cccc(Cl)c2O1 [Compound 266]
95: Plant response rating, Sedge, Umbrella (Flood) [5]
75: Plant response rating, Ducksalad (Flood) [9]
0: Ragweed plant response rating ([13]; Test C, 125 g ai/ha) | Plant response rating, Barnyardgrass (Flood) [22]
100: Foxtail, Green plant response rating ([2]; 500 g ai/ha) | Foxtail, Green plant response rating ([2]; Test C, 125 g ai/ha) | Plant response rating, Galium [4, 31] | Plant response rating, Galium [4, 32] | Plant response rating, Soybean [17, 31] | Pigweed, Palmer plant response rating ([24]; 500 g ai/ha) | Pigweed, Palmer plant response rating ([24]; Test C, 125 g ai/ha) | Soybean plant response rating ([25]; 500 g ai/ha)
30: Blackgrass plant response rating [1, 30] | Ragweed plant response rating ([13]; 500 g ai/ha) | Wheat plant response rating ([19]; Test C, 125 g ai/ha)
80: Plant response rating, Blackgrass [6, 32] | Plant response rating, Barnyardgrass [7, 29] | Plant response rating, Kochia [16, 31] | Plant response rating, Horseweed [20, 32] | Soybean plant response rating ([25]; Test C, 125 g ai/ha) | Ryegrass, Italian plant response rating ([28]; Test C, 125 g ai/ha)
60: Plant response rating, Blackgrass [1, 29]
90: Oat, Wild plant response rating ([3]; 500 g ai/ha) | Plant response rating, Foxtail, Green [12, 31] | Plant response rating, Foxtail, Green [12, 32] | Kochia plant response rating ([15]; 500 g ai/ha) | Kochia plant response rating ([15]; Test C, 125 g ai/ha) | Plant response rating, Pigweed, Palmer [23, 31] | Plant response rating, Barnyardgrass [27, 32] | Ryegrass, Italian plant response rating ([28]; 500 g ai/ha)
10: Plant response rating, Oat, Wild [10, 31]
40: Oat, Wild plant response rating ([3]; Test C, 125 g ai/ha) | Corn plant response rating ([14]; 500 g ai/ha)
15: Plant response rating, Rice (Flood) [8]
70: Plant response rating, Ragweed [11, 31] | Plant response rating, Corn [18, 31] | Plant response rating, Corn [18, 32] | Wheat plant response rating ([19]; 500 g ai/ha) | Plant response rating, Ryegrass, Italian [26, 31] | Plant response rating, Barnyardgrass [27, 31]
50: Plant response rating, Blackgrass [6, 31] | Barnyardgrass plant response rating [7, 30]
20: Corn plant response rating ([14]; Test C, 125 g ai/ha) | Plant response rating, Horseweed [20, 31] | Plant response rating, Wheat [21, 31]

CC(=O)N(C)c1ncn(-c2cccc(C(=O)N3C[C@H](C)Oc4c(C)cccc43)c2)n1 [Compound 336]
30: Plant response rating, Blackgrass [1, 34] | Oat, Wild plant response rating ([3]; 500 g ai/ha) | Plant response rating, Blackgrass [6, 37] | Soybean plant response rating ([25]; 500 g ai/ha)
0: Plant response rating, Oat, Wild [3, 35] | Plant response rating, Sedge, Umbrella (Flood) [5] | Plant response rating, Rice (Flood) [8] | Ragweed plant response rating ([13]; 500 g ai/ha) | Plant response rating, Ragweed [13, 35] | Plant response rating, Corn [14, 35] | Plant response rating, Kochia [15, 35] | Plant response rating, Wheat [19, 35] | Plant response rating, Horseweed [20, 36] | Plant response rating, Horseweed [20, 37] | Plant response rating, Barnyardgrass (Flood) [22] | Plant response rating, Soybean [25, 35]
25: Plant response rating, Ducksalad (Flood) [9]
90: Plant response rating, Galium [4, 36] | Plant response rating, Blackgrass [6, 36] | Kochia plant response rating ([15]; 500 g ai/ha) | Pigweed, Palmer plant response rating ([24]; 500 g ai/ha) | Ryegrass, Italian plant response rating ([28]; 500 g ai/ha)
50: Plant response rating, Ryegrass, Italian [26, 37]
70: Plant response rating, Oat, Wild [10, 36] | Plant response rating, Pigweed, Palmer [23, 36] | Plant response rating, Ryegrass, Italian [28, 35]
20: Plant response rating, Barnyardgrass [7, 34] | Plant response rating, Ragweed [11, 37] | Plant response rating, Foxtail, Green [12, 37] | Corn plant response rating ([14]; 500 g ai/ha) | Plant response rating, Corn [18, 37] | Plant response rating, Pigweed, Palmer [23, 37]
80: Plant response rating, Foxtail, Green [2, 35] | Plant response rating, Kochia [16, 36] | Plant response rating, Soybean [17, 37] | Plant response rating, Ryegrass, Italian [26, 36]
40: Blackgrass plant response rating [1, 33] | Wheat plant response rating ([19]; 500 g ai/ha) | Plant response rating, Wheat [21, 36]
60: Plant response rating, Galium [4, 37] | Plant response rating, Foxtail, Green [12, 36] | Plant response rating, Kochia [16, 37] | Plant response rating, Corn [18, 36] | Plant response rating, Barnyardgrass [27, 36]
100: Foxtail, Green plant response rating ([2]; 500 g ai/ha) | Barnyardgrass plant response rating [7, 33] | Plant response rating, Soybean [17, 36]
10: Plant response rating, Oat, Wild [10, 37] | Plant response rating, Ragweed [11, 36] | Plant response rating, Wheat [21, 37] | Plant response rating, Pigweed, Palmer [24, 35] | Plant response rating, Barnyardgrass [27, 37]
